Laboratory results: patent US7175855B1, “Ziprasidone suspension” (Pfizer Inc., priority 1999, dated 2007)

Assay: Ability of surfactants to wet ziprasidone HCl monohydrate in water (drug wetting time)
Assay type: physicochemical
Method: Different surfactants were tested for their ability to wet ziprasidone HCl monohydrate in water: sodium lauryl sulfate (SLS), MIGLYOL® (registered trademark of Dynamit Nobel Aktiengesellschaft, Germany) Triglyceride (810), and polysorbate-80. In three separate 100 mL volumes of water, each surfactant listed above was added in an amount to make a 1% solution. MIGLYOL® was added in excess due to its low solubility. While stirring at 200 rpm with an overhead stirrer, to each of the three surfactant solutions was added 1.132 g of ziprasidone […] (equivalent to 10 mgA/ml).

observed rate of wetting (1% surfactant solution in 100 mL water (MIGLYOL in excess), 1.132 g ziprasidone (10 mgA/ml), stirring at 200 rpm): >20 min
Compound: CCCCCCCCCCCCOS(=O)(=O)[O-].[Na+] [SLS, sodium lauryl sulfate]
foaming during wetting (in words) (wetting agents tested with ziprasidone hydrochloride in water): caused foaming before adequate wetting could be obtained
